Results from article PMC6756013, “B591, a novel specific pan-PI3K inhibitor, preferentially targets cancer stem cells” (Oncogene, 2019).

Tests used:
[1] = molecular target: AKT1 (PKB alpha) (Homo sapiens, UniProt P31749); test: Biochemical kinase profiling (Life Technologies)
Experimental: (§1) Purified PI3K Class I Lipid Kinase, including p110α/p85α, p110β/p85α, p110γ, and p110δ/p85α (Promega, Madison, WI, USA), was respectively incubated with B591 for 30 min at room temperature. The activity of PI3K was evaluated using a PI3-Kinase Activity ELISA kit (K-1000s, Echelon, Salt Lake City, UT, USA) according to the manufacture’s instructions. The assay is a competitive ELISA in which the signal is inversely proportional to the amount of PI(3,4,5)P3 produced. After the PI3-Kinase reactions are complete, reaction products are first mixed and incubated with a PI(3,4,5)P3 detector protein, then added to the PI(3,4,5)P3-coated microplate for competitive binding. A peroxidase-linked secondary detector and colorimetric detection is used to detect PI(3,4,5)P3 detector binding to the plate. The colorimetric signal is inversely proportional to the amount of PI(3,4,5)P3 produced by PI3-Kinase. The absorbance was measured at 450 nm with a Multilabel Reader (PerkinElmer, Waltham, MA, USA). ATP competition assays were executed with varying concentrations of ATP, and five concentrations of ATP were 5 μM, 25 μM, 50 μM, 100 μM, and 200 μM respectively. The IC50 values for inhibition of PI3Kβ by B591 were determined at indicated concentrations of ATP. In addition, B591 selectivity was tested against 39 kinases at Life Technologies.

[2] = molecular target: DNA-PK (Homo sapiens, UniProt P78527); test: Biochemical kinase profiling (Life Technologies)
Experimental: as §1

[3] = molecular target: T1, EPHA8 (Homo sapiens, UniProt P29322); test: Biochemical kinase profiling (Life Technologies)
T1 construct: purchased Life Technologies
Experimental: as §1

[4] = molecular target: T2, FGFR2 (Homo sapiens, UniProt P21802); test: Biochemical kinase profiling (Life Technologies)
T2 construct: purchased Life Technologies
Experimental: as §1

[5] = molecular target: JAK1 (Homo sapiens, UniProt P23458); test: Biochemical kinase profiling (Life Technologies)
Experimental: as §1

[6] = molecular target: LYN B (Homo sapiens, UniProt P07948); test: Biochemical kinase profiling (Life Technologies)
Experimental: as §1

[7] = molecular target: T3, MET (cMet) (Homo sapiens, UniProt P08581); test: Biochemical kinase profiling (Life Technologies)
T3 construct: purchased Life Technologies
Experimental: as §1

[8] = molecular target: T4, PDGFRB (PDGFR beta) (Homo sapiens, UniProt P09619); test: Biochemical kinase profiling (Life Technologies)
T4 construct: purchased Life Technologies
Experimental: as §1

[9] = molecular target: T5, RPS6KB1 (p70S6K) (Homo sapiens, UniProt P23443); test: Biochemical kinase profiling (Life Technologies)
T5 construct: purchased Life Technologies
Experimental: as §1

[10] = tested on: MDA-MB-231 and SUM-159PT mammospheres; test: Secondary mammosphere-formation assay; format: cell-based, human; settings: primary mammospheres treated 48 h, then passaged
Experimental: Cells were treated with indicated agents for 48 h, and cells were harvested and processed for apoptosis assay using the PE-Annexin V/7-AAD Apoptosis Detection Kit. d Representative flow cytometry plots of apoptosis inducing activity of B591 (10 μM) and paclitaxel (10 nM) on monolayer and mammosphere MDA-MB-231 cells. e B591 preferentially targeted CD44^high/CD24^low cells. Cells were treated with B591 or paclitaxel for 2 days. Following a 4-day recovery period, cells were co-stained with CD44 and CD24 antibodies and subjected to FACS analysis. Representative flow cytometry plots show the effect of B591 on CD44^high/CD24^low population in MDA-MB-231 cells in vitro. f B591 decreased mammosphere forming efficiency. Primary MDA-MB-231 mammospheres were treated with B591 or paclitaxel for 48 h. Results of the secondary mammosphere-formation assay are shown. Scale bar represents 40 μm. g B591 decreased the expression of CSC markers in MDA-MB-231 cells. Cells were treated with B591 or paclitaxel for 2 days. […]
In the mammosphere assay, MDA-MB-231 (Fig. 3f) and SUM-159PT (Supplementary Fig. S10D) cells were treated with B591 or paclitaxel, and the mammospheres were collected and subsequently passaged. Secondary Mammosphere-forming activity was determined, which reflects the self-renewal capability of CSCs. […]

[11] = tested on: lung metastasis of 4T1 cells; test: Breast cancer metastasis study; format: in vivo, NOD/SCID mice; settings: 8 mg/kg intraperitoneally once a day
Experimental: Studies implicated that the process termed EMT is associated with features of CSCs, which are considered to be involved in metastasis, a major cause of cancer-associated deaths. 4T1 murine mammary carcinoma cells spontaneously produce highly metastatic tumors that can metastasize to the lung, liver, lymph nodes, and brain while the primary tumor is growing in situ. To determine the efficacy of B591 on tumor metastasis, the metastasis model was established by incubating 4T1 cells into the mammary gland of NOD/SCID mice and treated with 8 mg/kg of B591 intraperitoneally once a day. B591 decreased more than 50% of the metastatic tumors in the lung which spontaneously metastasize from the primary tumor in the mammary gland (Fig. 6a).
To establish the metastasis model, 3 × 10^5 of 4T1 cells were incubated into the mammary fat pad of NOD/SCID mice. When tumor volume reached about 50 mm^3, mice were randomly divided into two groups for treatment with 8 mg/kg of B591 or vehicle (i.p.) for 2 months. The metastatic tumors in lung were stained with ink as previously reported.

[12] = tested on: SUM-159PT cells; test: Mammosphere formation after paclitaxel pre-treatment; format: cell-based; settings: 8 nM Paclitaxel or 8 nM Paclitaxel plus 5 μM B591 for 24 h
Experimental: Fig. 6 B591 reduces breast tumor metastasis and recurrence. a Representative images show the effect of B591 (8 mg/kg) on lung metastasis of 4T1 cells, and data from six mice were plotted. b SUM-159PT cells were respectively treated with the indicated agents (8 nM Paclitaxel, 8 nM Paclitaxel plus 5 μM B591) for 24 h, the cells were then cultured for mammospheres. Representative images were shown, and data from two independent experiments were plotted. c–f SUM-159PT xenografts (n = 7) were treated with 4 mg/kg Paclitaxel, or 10 mg/kg B591, or both for 2 weeks, then ended the treatment and waited for tumor recurrence. Tumor volume (c) and body weight (d) were measured every 2 days after treatment, and tumors were photographed (e) and weighted (f) at the end of the experiment. ^*p < 0.05, ^**p < 0.01 versus indicated groups
Based on the finding that B591 preferentially targets CSCs, we supposed that by eliminating the breast CSCs, B591 might delay breast tumor recurrence after initial treatment with chemotherapy drugs. Paclitaxel is a first-line chemotherapeutic agent used for breast cancer therapy. SUM-159PT cells were pre-treated with paclitaxel, and then the cells remaining alive were cultured for mammospheres.

Sequence of LYN B (P07948 1-491 isoform P07948-2): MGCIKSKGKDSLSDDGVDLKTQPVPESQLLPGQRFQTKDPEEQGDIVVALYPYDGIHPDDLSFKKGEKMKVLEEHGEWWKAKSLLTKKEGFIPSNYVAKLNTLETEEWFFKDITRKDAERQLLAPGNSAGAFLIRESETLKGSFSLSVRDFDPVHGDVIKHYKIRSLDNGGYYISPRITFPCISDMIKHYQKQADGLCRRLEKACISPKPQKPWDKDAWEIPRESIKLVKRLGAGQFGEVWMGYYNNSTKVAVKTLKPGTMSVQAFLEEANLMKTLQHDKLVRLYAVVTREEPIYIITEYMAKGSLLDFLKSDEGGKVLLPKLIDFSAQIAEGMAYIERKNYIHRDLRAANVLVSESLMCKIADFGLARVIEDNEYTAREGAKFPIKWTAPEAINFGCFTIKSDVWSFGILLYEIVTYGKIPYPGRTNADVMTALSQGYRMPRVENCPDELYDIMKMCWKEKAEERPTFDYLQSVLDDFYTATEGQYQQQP
T5 sequence (P23443 whole entry): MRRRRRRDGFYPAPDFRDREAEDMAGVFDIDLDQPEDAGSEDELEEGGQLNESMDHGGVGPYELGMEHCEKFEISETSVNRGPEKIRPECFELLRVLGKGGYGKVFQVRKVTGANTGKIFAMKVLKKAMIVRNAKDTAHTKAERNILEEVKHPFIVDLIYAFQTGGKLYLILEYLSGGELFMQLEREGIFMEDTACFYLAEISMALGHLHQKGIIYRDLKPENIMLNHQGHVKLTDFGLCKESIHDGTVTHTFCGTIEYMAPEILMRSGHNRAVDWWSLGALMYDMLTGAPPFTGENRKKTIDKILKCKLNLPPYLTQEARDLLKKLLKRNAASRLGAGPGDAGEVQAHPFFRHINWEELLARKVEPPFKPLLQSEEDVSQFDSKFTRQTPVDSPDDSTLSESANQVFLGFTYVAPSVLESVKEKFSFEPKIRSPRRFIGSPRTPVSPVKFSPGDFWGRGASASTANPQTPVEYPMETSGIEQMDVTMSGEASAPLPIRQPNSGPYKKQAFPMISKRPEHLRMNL
Sequence of JAK1 (P23458 whole entry): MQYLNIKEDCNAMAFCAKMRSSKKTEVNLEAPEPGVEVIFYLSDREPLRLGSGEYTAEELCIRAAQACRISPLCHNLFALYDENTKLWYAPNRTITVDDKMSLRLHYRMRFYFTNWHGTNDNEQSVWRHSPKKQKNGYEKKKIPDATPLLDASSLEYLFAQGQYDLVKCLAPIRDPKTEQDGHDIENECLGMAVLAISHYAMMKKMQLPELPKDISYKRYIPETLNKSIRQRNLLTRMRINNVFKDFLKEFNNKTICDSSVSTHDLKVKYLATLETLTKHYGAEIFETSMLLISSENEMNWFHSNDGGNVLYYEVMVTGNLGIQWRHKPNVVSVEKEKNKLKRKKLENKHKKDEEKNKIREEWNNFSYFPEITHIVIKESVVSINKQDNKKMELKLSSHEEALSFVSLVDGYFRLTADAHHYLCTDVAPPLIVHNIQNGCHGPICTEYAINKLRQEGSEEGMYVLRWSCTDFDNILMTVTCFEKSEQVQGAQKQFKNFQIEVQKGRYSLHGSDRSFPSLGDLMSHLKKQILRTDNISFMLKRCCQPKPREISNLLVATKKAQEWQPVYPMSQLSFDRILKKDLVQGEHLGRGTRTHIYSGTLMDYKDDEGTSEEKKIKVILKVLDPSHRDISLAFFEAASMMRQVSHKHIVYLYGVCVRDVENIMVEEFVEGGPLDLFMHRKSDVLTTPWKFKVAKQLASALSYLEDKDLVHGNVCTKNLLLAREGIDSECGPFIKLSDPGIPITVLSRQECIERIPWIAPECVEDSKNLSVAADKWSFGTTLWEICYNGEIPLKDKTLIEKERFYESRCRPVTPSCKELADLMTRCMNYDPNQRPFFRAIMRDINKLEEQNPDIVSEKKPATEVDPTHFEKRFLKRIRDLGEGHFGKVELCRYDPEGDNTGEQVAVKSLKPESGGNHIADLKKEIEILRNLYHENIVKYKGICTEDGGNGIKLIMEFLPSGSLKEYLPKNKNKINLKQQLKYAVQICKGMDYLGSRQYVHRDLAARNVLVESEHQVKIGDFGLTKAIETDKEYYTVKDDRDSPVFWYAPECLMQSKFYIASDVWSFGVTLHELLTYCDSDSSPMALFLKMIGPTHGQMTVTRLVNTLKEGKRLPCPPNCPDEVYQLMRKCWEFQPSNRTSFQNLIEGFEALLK
T4 sequence (P09619 33-1106): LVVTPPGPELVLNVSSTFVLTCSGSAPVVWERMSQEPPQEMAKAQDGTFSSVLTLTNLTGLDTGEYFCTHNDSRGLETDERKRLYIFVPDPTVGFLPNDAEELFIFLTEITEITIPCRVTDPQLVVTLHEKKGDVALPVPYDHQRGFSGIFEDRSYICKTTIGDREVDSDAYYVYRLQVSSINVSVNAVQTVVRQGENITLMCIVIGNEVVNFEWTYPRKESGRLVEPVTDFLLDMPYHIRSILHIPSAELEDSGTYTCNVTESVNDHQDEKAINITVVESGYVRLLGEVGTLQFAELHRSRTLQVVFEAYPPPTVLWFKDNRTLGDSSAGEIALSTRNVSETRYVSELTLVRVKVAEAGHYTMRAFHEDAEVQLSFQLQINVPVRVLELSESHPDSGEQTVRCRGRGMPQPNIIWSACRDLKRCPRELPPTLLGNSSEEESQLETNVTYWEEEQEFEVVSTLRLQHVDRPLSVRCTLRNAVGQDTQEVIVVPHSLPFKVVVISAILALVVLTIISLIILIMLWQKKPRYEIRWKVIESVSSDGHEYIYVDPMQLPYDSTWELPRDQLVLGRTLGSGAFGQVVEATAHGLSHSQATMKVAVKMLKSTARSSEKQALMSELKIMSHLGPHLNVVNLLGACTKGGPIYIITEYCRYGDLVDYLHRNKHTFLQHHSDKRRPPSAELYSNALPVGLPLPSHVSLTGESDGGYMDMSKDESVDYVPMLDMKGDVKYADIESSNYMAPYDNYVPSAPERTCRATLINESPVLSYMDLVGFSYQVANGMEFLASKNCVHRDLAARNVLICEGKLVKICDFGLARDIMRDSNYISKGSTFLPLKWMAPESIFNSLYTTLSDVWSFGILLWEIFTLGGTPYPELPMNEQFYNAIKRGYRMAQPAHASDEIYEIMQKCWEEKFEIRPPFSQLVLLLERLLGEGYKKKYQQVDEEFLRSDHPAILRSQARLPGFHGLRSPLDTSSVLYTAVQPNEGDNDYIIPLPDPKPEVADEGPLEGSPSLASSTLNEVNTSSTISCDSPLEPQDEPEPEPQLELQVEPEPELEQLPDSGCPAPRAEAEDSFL
T2 sequence (P21802 22-821): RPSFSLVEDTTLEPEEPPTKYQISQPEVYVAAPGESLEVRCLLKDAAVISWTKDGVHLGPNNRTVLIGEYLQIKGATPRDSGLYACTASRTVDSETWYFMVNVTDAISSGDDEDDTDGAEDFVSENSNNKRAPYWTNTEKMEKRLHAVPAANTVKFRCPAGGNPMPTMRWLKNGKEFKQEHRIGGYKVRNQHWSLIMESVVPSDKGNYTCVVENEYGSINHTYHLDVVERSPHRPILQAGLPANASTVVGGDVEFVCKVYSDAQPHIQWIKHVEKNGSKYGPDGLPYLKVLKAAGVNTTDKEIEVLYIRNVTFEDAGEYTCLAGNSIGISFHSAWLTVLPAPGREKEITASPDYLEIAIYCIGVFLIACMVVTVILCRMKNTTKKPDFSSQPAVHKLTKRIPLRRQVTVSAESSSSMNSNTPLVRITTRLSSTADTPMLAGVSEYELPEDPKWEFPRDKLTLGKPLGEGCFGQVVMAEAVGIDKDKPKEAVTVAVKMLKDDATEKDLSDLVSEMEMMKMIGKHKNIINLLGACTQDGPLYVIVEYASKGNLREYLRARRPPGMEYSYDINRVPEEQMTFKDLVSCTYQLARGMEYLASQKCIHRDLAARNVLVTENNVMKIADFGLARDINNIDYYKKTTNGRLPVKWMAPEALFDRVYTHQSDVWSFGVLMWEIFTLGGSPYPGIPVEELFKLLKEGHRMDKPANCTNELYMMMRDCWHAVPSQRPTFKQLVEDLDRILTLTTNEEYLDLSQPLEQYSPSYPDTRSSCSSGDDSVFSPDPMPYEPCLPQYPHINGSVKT
T1 sequence (P29322 28-1005): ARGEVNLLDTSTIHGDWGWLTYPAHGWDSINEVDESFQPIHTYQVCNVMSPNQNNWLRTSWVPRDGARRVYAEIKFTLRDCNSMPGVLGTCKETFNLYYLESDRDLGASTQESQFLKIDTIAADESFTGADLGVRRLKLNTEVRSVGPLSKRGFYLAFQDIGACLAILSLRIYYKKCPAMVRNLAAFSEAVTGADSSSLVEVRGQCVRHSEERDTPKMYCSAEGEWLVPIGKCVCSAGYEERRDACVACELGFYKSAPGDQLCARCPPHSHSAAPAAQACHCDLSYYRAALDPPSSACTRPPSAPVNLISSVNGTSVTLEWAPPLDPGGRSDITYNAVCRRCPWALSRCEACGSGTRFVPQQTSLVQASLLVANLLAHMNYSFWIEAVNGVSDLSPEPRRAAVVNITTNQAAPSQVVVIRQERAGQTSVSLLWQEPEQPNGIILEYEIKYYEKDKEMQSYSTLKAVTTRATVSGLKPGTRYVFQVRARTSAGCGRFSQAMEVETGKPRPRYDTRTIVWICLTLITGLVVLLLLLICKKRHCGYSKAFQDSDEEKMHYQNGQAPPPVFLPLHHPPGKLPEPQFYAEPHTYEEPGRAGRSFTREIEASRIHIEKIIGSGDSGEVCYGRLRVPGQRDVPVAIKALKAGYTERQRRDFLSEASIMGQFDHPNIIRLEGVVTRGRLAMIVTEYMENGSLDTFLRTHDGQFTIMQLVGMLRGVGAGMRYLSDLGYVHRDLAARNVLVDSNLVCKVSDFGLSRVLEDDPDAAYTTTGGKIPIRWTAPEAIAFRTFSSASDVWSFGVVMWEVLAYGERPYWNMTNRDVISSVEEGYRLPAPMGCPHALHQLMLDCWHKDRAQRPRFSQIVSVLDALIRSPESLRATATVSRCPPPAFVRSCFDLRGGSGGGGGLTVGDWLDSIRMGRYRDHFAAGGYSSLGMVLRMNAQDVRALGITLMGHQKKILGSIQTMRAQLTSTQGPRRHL

Question: With Cc1cc2c(cc1C)[n+](Cc1ccccc1Br)cn2Cc1ccc2c(c1)CCO2.[Br-] [B591, 3-(2-bromobenzyl)-1-((2,3-dihydrobenzofuran-5-yl)methyl) -5,6-dimethyl-1H-benzo[d]imidazol-3-ium bromide] as the compound, how does the IC50 [1] read?
Answer: The IC50 was > 500 µM.

Question: And the IC50 [2]?
Answer: Its IC50 is 448 µM.

Question: What about the IC50 [3] of the same compound?
Answer: The IC50 was > 500 µM.

Question: And the IC50 [4]?
Answer: The IC50 was > 500 µM.

Question: What about the IC50 [5] of the same compound?
Answer: The IC50 was > 500 µM.

Question: What about the IC50 [6] of the same compound?
Answer: The IC50 was > 500 µM.

Question: What about the IC50 [7] of the same compound?
Answer: The IC50 was > 500 µM.

Question: And the IC50 [8]?
Answer: The IC50 was > 500 µM.

Question: What about the IC50 [9] of the same compound?
Answer: The IC50 was > 500 µM.

Question: And the Secondary mammosphere-forming ability [10]?
Answer: The Secondary mammosphere-forming ability was “strikingly suppressed”.

Question: What about the “Decrease of metastatic tumors in the lung” value [11] of the same compound?
Answer: The value was “more than 50%”.

Question: And the “Formation of mammospheres / paclitaxel-enriched CSCs” value [12]?
Answer: The value was “the paclitaxel-enriched CSCs were effectively eliminated”.
